# Measured values reported in US9849143B2, “Broad spectrum antiviral and methods of use” (The Burlington HC Research Group, Inc., priority 2006, dated 2017).
# Several values for one entry are separate records, joined by “and”; a condition that tells them apart may be missing. Equal values may be shown once. Read-outs that look alike come from different tables or passages of the source.
# Key:
# Ad4-p (strain RI-67) = test: Infectious virus yield in A549 cell monolayers, Ad4-p; assay type: cell-based, adenovirus species E
# Ad7-p (strain Gomen) = test: Infectious virus yield in A549 cell monolayers, Ad7-p; assay type: cell-based, adenovirus species B
# A/HKx31 (H3N2) = assay type: cell-based, influenza A
# PHA blasts = test: Viability of PHA blasts exposed to WR-1065; assay type: cell-based, Human; conditions: uninfected PHA blasts
# [1] = test system: Ad5-p (strain Adenoid 75); test: Infectious virus yield in A549 cell monolayers, Ad5-p; assay type: cell-based, adenovirus species C
# Adenovirus 5p = test: Plaque reduction assay in A549 cells; assay type: cell-based
# HIV = assay type: cell-based; conditions: for duration of action: cell culture, cysteamine re-added every 12 hours, WR-1065 added once in a 72 hour period
# [2] = rhesus macaques, cited from earlier work
# [3] = in vivo; cited from earlier work
# [4] = mouse, in vivo, cited from earlier work
# [5] = mouse, in vivo; cited from earlier work
# [6] = Experiment #1, 1000 μM WR1065, 72 hours
# [7] = Experiment #1, 10 μM AZT, 72 hours
smiles,measurement,setting,value
"NCCCNCCS [WR-1065, 2-(3-aminopropylamino)ethanethiol]",Mean infectious virus yields 96-h post infection & WR 1065 treatment,"Ad4-p (strain RI-67); Trial 1, <33 μM WR 1065","1,420 PFUs × 10^6"
same,Mean infectious virus yields 96-h post infection & WR 1065 treatment,"Ad4-p (strain RI-67); Trial 1, <100 μM WR 1065",980 PFUs × 10^6
same,Mean infectious virus yields 96-h post infection & WR 1065 treatment,"Ad4-p (strain RI-67); Trial 2, <100 μM WR 1065",9.5 PFUs × 10^6
same,Mean infectious virus yields 96-h post infection & WR 1065 treatment,"Ad7-p (strain Gomen); Trial 1, <10 μM WR 1065",1.85 PFUs × 10^6
same,Mean infectious virus yields 96-h post infection & WR 1065 treatment,"Ad7-p (strain Gomen); Trial 1, <33 μM WR 1065",0.85 PFUs × 10^6
same,Mean infectious virus yields 96-h post infection & WR 1065 treatment,"Ad7-p (strain Gomen); Trial 1, <100 μM WR 1065",1.15 PFUs × 10^6
same,Mean infectious virus yields 96-h post infection & WR 1065 treatment,"Ad7-p (strain Gomen); Trial 2, <100 μM WR 1065",30.5 PFUs × 10^6
same,Mean plaque number,A/HKx31 (H3N2),59.3 and 57 and 48
same,% Viable Cells (compared to control),"PHA blasts; 1 μM WR-1065, 72 hours",83%
same,% Viable Cells (compared to control),"PHA blasts; 5 μM WR-1065, 72 hours",82%
same,% Viable Cells (compared to control),"PHA blasts; 10 μM WR-1065, 72 hours",90%
same,% Viable Cells (compared to control),"PHA blasts; 50 μM WR-1065, 72 hours",89%
same,% Viable Cells (compared to control),"PHA blasts; 100 μM WR-1065, 72 hours",63%
same,% Viable Cells (compared to control),"PHA blasts; 500 μM WR-1065, 72 hours",73%
same,% Viable Cells (compared to control),"PHA blasts; 1000 μM WR-1065, 72 hours",30%
same,Mean infectious virus yields 96-h post infection & WR 1065 treatment,"[1]; Trial 1, <10 μM WR 1065",9.0 PFUs × 10^6
same,Mean infectious virus yields 96-h post infection & WR 1065 treatment,"[1]; Trial 1, <33 μM WR 1065",5.65 PFUs × 10^6
same,Mean infectious virus yields 96-h post infection & WR 1065 treatment,"[1]; Trial 1, <100 μM WR 1065",2.25 PFUs × 10^6
same,Mean infectious virus yields 96-h post infection & WR 1065 treatment,"[1]; Trial 2, <33 μM WR 1065",600 PFUs × 10^6
same,Mean infectious virus yields 96-h post infection & WR 1065 treatment,"[1]; Trial 2, <100 μM WR 1065",500 PFUs × 10^6
same,Mean infectious virus yields 96-h post infection & WR 1065 treatment,"[1]; Trial 3, <33 μM WR 1065","1,660 PFUs × 10^6"
same,plaque number (plaque reduction assay),Adenovirus 5p; 16.5 μM WR1065,63
same,plaque number (plaque reduction assay),Adenovirus 5p; 50 μM WR1065,41
same,reduction of plaque number,Adenovirus 5p; 50 μM WR1065,36%
same,Estimated percent viral inhibition,HIV; [6],~100%
same,HIV P24,HIV; [6],0.13 pg/mL
same,suppression of HIV replication,HIV; WR-1065 at a concentration of less than 100 μM,> 99.9%
same,duration of action,HIV,long duration of action
same,in vitro anti-HIV activity relative to cysteamine,HIV; compared by effective concentration,over 2 fold
same,Concentration (plasma),[2]; 1 h after duodenal administration of 150 mg/kg BW of parent drug,6210 ng/mL
same,Concentration (plasma),[2]; 2 h after duodenal administration of 150 mg/kg BW of parent drug,4140 ng/mL
same,Concentration (plasma),[2]; 6 h after duodenal administration of 150 mg/kg BW of parent drug,2070 ng/mL
"NCCS [cysteamine, Cysteamine]",suppression of HIV replication,"HIV; 200 μM cysteamine, in vitro assay system as described above",~100%
same,duration of action,HIV,very short
"Cc1cn([C@H]2C[C@H](N=[N+]=[N-])[C@@H](CO)O2)c(=O)[nH]c1=O [AZT, Zidovudine]",Estimated percent viral inhibition,HIV; [7],~100%
same,HIV P24,HIV; [7],0.13 pg/mL
same,Estimated percent viral inhibition,"HIV; Experiment #3, 10 μM AZT",~100%
same,HIV P24,"HIV; Experiment #3, 10 μM AZT",2.9 pg/mL
"NCCCNCCSP(=O)(O)O [Amifostine, S-2-(3-aminopropyl)aminoethyl phosphorothioic acid]",effects of single doses,[3],no untoward effects
same,maximally tolerated dose (MTD),[4]; ip,432 mg/kg BW
same,maximally tolerated dose (MTD),[4]; po,720 mg/kg BW
same,100% effective radioprotective dose,[5],about one half
